Experimental data as given in ChEMBL document CHEMBL1201862, “PubChem BioAssay data set” (2004).
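A five-concentration, 48-hour dose response in 96-well plates underlies each endpoint, interpolated linearly between surrounding concentrations. GI50 is the concentration that inhibits growth by half.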 Calls of active or inactive are those of the source. Rule as the data show it: active = GI50 up to about 1.1 µM and inactive = higher. Where a SMILES comes first, the peptide text is derived from it. [ ]: non-standard residue; d: D form. The star is where a group is joined. NMeF = CN[C@@H](Cc1ccccc1)C(=O)O; NMeV = CN[C@H](C(=O)O)C(C)C; Boc = CC(C)(C)OC(=O)*; OBn = c1ccc(CO*)cc1

Assays:
Assay in all cases: NCI tumour cell line growth inhibition, 48 h
[1] = test system: HCT-116
[2] = test system: HCT-15
[3] = test system: TK-10
[4] = test system: UACC-257
[5] = test system: Hs-578T
[6] = test system: UACC-62
[7] = test system: OVCAR-4
[8] = test system: NCI-H226
[9] = test system: SF-295
[10] = test system: SN12C
[11] = test system: SF-268
[12] = test system: KM12
[13] = test system: LOX IMVI
[14] = test system: MOLT-4
[15] = test system: OVCAR-3
[16] = test system: NCI/ADR-RES
[17] = test system: OVCAR-8
[18] = test system: A498
[19] = test system: MDA-N

SMILES	GI50 [1]	GI50 [2] [µM]	GI50 [3]	GI50 [4]	GI50 [5]	GI50 [6]	GI50 [7]	GI50 [8]	GI50 [9]	GI50 [10]	GI50 [11]	GI50 [12]	GI50 [13]	GI50 [14]	GI50 [15]	GI50 [16]	GI50 [17]	GI50 [18]	GI50 [19]
CCOC(=O)C(C(=S)Nc1ccccc1)c1nn2c(=O)cc(C)nc2s1 (configuration not stated)	20.8 µM (inactive)	27.7	29.7 µM (inactive)	22.7 µM (inactive)	41 µM (inactive)	23.7 µM (inactive)	30.8 µM (inactive)	21.7 µM (inactive)	32.4 µM (inactive)	36.7 µM (inactive)	28.8 µM (inactive)	25.4 µM (inactive)	14.4 µM (inactive)	25 µM (inactive)	24.5 µM (inactive)	26.7 µM (inactive)	23.6 µM (inactive)		
O=C(/C(=C\I)c1ccccc1)c1ccccc1	11.6 µM (inactive)	3.33	16 µM (inactive)	4.55 µM (inactive)	3.75 µM (inactive)	3.26 µM (inactive)	6.7 µM (inactive)	24.6 µM (inactive)	16.9 µM (inactive)	18 µM (inactive)	13.9 µM (inactive)	2.71 µM (inactive)	12.7 µM (inactive)	18.3 µM (inactive)	2.24 µM (inactive)	19.4 µM (inactive)	4.32 µM (inactive)	16.5 µM (inactive)	
C=C(C)C#CC(O)(C(=O)OC1CCN(C)CC1)C(C)C (configuration not stated)	> 100 µM (inactive)	> 100	> 100 µM (inactive)	> 100 µM (inactive)		> 100 µM (inactive)		> 100 µM (inactive)	> 100 µM (inactive)	> 100 µM (inactive)	> 100 µM (inactive)	> 100 µM (inactive)	> 100 µM (inactive)	> 100 µM (inactive)	> 100 µM (inactive)	29.4 µM (inactive)	> 100 µM (inactive)		> 100 µM (inactive)
Cc1ccc(C)c2c1C1CCCCC3(OCCCO3)C21O (configuration not stated)	> 100 µM (inactive)	> 100	> 100 µM (inactive)	> 100 µM (inactive)		> 100 µM (inactive)	> 100 µM (inactive)	> 100 µM (inactive)	> 100 µM (inactive)	> 100 µM (inactive)	> 100 µM (inactive)	> 100 µM (inactive)	> 100 µM (inactive)	> 100 µM (inactive)	51.4 µM (inactive)		> 100 µM (inactive)	> 100 µM (inactive)	
CCCCCC(=O)OC[n+]1ccc2c(C)c3[nH]c4ccccc4c3c(C)c2c1	0.373 µM (active)	0.389	3.08 µM (inactive)	1.57 µM (inactive)		1.56 µM (inactive)	1.1 µM (active)	1.32 µM (inactive)	0.946 µM (active)	0.489 µM (active)	0.796 µM (active)		0.514 µM (active)	0.327 µM (active)	1.19 µM (inactive)		0.474 µM (active)	1.35 µM (inactive)	
C=C(Cl)C(Cl)(CCl)CCC(Br)C(C)(C)Br (configuration not stated)	> 10 µM (inactive)	> 10	> 10 µM (inactive)			> 10 µM (inactive)	> 10 µM (inactive)	> 10 µM (inactive)	> 10 µM (inactive)	> 10 µM (inactive)	> 10 µM (inactive)	> 10 µM (inactive)		> 10 µM (inactive)	> 10 µM (inactive)		> 10 µM (inactive)	> 10 µM (inactive)	> 10 µM (inactive)
C/C(=N\NC(=S)N1CCCCCC1)c1cccc2cccnc12	0.634 µM (active)	0.287	2.48 µM (inactive)	2.58 µM (inactive)	19.7 µM (inactive)			0.589 µM (active)	0.271 µM (active)		4.29 µM (inactive)	1.42 µM (inactive)	0.767 µM (active)	0.134 µM (active)	0.0203 µM (active)	1.03 µM (active)	1.38 µM (inactive)	5.64 µM (inactive)	
CN(CCS(=O)(=O)N1C(=O)C2CCCN2C(=O)[C@@H]1Cc1ccccc1)C(=O)OCc1ccccc1 (some centres not stated)	39.9 µM (inactive)	58.6	73.3 µM (inactive)	69 µM (inactive)		38.8 µM (inactive)	68.4 µM (inactive)	37.8 µM (inactive)	62.2 µM (inactive)	91.6 µM (inactive)	61.1 µM (inactive)	48.2 µM (inactive)	58.3 µM (inactive)	16.5 µM (inactive)	32.6 µM (inactive)		70.3 µM (inactive)	35.5 µM (inactive)	
O=C1Cc2nc(CO)c(CO)c(CO)c2CO1	> 100 µM (inactive)	> 100	> 100 µM (inactive)	> 100 µM (inactive)		> 100 µM (inactive)			> 100 µM (inactive)	> 100 µM (inactive)	> 100 µM (inactive)	> 100 µM (inactive)	> 100 µM (inactive)		> 100 µM (inactive)		> 100 µM (inactive)	> 100 µM (inactive)	
CNc1ccccc1S(=O)(=O)c1ccccc1[N+](=O)[O-]	66.5 µM (inactive)	46.3	> 100 µM (inactive)		40.2 µM (inactive)	48.8 µM (inactive)	27.2 µM (inactive)	65.6 µM (inactive)	80.2 µM (inactive)	92.7 µM (inactive)	> 100 µM (inactive)	> 100 µM (inactive)	53 µM (inactive)	30.8 µM (inactive)	68.4 µM (inactive)	45.5 µM (inactive)	> 10 µM (inactive)	> 100 µM (inactive)	
CC(=O)c1ccc(N2C(=O)C3c4[nH]c5ccccc5c4C4CCC(C(C)(C)C)CC4C3C2=O)cc1 (configuration not stated)	16.6 µM (inactive)	29.3		35.2 µM (inactive)		21.1 µM (inactive)	30.9 µM (inactive)	18.7 µM (inactive)	28.7 µM (inactive)	18.5 µM (inactive)	17.3 µM (inactive)			30.1 µM (inactive)			22.4 µM (inactive)	22.5 µM (inactive)	
O=C1CCCCCCCCCCC(=O)N2CCOCCOCCN1Cc1cccc(n1)C2	> 100 µM (inactive)	> 100	> 100 µM (inactive)	> 100 µM (inactive)		> 100 µM (inactive)	> 100 µM (inactive)	> 100 µM (inactive)	65.5 µM (inactive)	> 100 µM (inactive)	> 100 µM (inactive)	> 100 µM (inactive)	> 100 µM (inactive)	39.6 µM (inactive)	44.5 µM (inactive)		> 100 µM (inactive)	> 100 µM (inactive)	
O=C(NN1C(=O)C(Cl)C1c1ccc(Cl)cc1)c1c(Cl)c(Cl)c(Cl)c(Cl)c1-c1nc2ccccc2[nH]1 (configuration not stated)	15.5 µM (inactive)	17.6		25.2 µM (inactive)	41.5 µM (inactive)	15.7 µM (inactive)		22.1 µM (inactive)	23.9 µM (inactive)	23 µM (inactive)	25.8 µM (inactive)	31.4 µM (inactive)	16.5 µM (inactive)	7.33 µM (inactive)	27.8 µM (inactive)	33 µM (inactive)	17.8 µM (inactive)	24.8 µM (inactive)	
O=C(COc1ccc(Br)cc1Br)N1N=C(c2ccc([N+](=O)[O-])o2)CC1(O)c1ccccc1 (configuration not stated)	11.9 µM (inactive)	6.19		23.1 µM (inactive)		4.95 µM (inactive)	17 µM (inactive)	18.2 µM (inactive)	18.7 µM (inactive)	12.2 µM (inactive)	12.3 µM (inactive)	17.4 µM (inactive)	5.47 µM (inactive)	2.64 µM (inactive)	3.93 µM (inactive)		9.89 µM (inactive)	10.2 µM (inactive)	
Oc1cccc(-c2cc(=S)ss2)c1	17.9 µM (inactive)	15.1	18.5 µM (inactive)	14.9 µM (inactive)	16.3 µM (inactive)	18.5 µM (inactive)	18.6 µM (inactive)	18 µM (inactive)	14.3 µM (inactive)	20.2 µM (inactive)	16.9 µM (inactive)	18.6 µM (inactive)	14.8 µM (inactive)	3.22 µM (inactive)		17.5 µM (inactive)	17.7 µM (inactive)		
CN(C)c1ccc(/C=C/c2ccc(/C=C/c3ccc(N(C)C)cc3)cc2)cc1	83.9 µM (inactive)	> 100	> 100 µM (inactive)	90.4 µM (inactive)		87.3 µM (inactive)	> 100 µM (inactive)	81.8 µM (inactive)	89.1 µM (inactive)	> 100 µM (inactive)	> 100 µM (inactive)	> 100 µM (inactive)	> 100 µM (inactive)	> 100 µM (inactive)	> 100 µM (inactive)		> 100 µM (inactive)	> 100 µM (inactive)	
CC(=O)OC(C)(C)[C@@H]1CC[C@]2(C)/C=C/[C@H](C)C[C@@H](O)C3=C(C)C[C@@H](O3)C12 (some centres not stated)	> 100 µM (inactive)	> 100	> 100 µM (inactive)	> 100 µM (inactive)		> 100 µM (inactive)	> 100 µM (inactive)	49.1 µM (inactive)	> 100 µM (inactive)	> 100 µM (inactive)	> 100 µM (inactive)	> 100 µM (inactive)	> 100 µM (inactive)	> 100 µM (inactive)	> 100 µM (inactive)		> 100 µM (inactive)	> 100 µM (inactive)	
CC(C)[C@@H](C(=O)N1CCC[C@H]1C(=O)OCc1ccccc1)N(C)C(=O)[C@H](C(C)C)N(C)C(=O)[C@H](Cc1ccccc1)N(C)C(=O)[C@H](NC(=O)OC(C)(C)C)C(C)C (Boc-[dV][NMeF][NMeV][NMeV]P-OBn)	> 50 µM (inactive)	17.3	> 50 µM (inactive)	> 50 µM (inactive)	> 50 µM (inactive)	> 50 µM (inactive)	> 50 µM (inactive)	> 50 µM (inactive)	> 50 µM (inactive)	> 50 µM (inactive)	> 50 µM (inactive)	> 50 µM (inactive)	> 50 µM (inactive)	> 50 µM (inactive)	> 50 µM (inactive)	> 50 µM (inactive)		> 50 µM (inactive)	
